The values that follow come from patent US10138255B2, “Piperazine derivatives as HIV protease inhibitors” (Merck Sharp & Dohme Corp., priority 2014, dated 2018).

The test system of this test is HIV-1 (H9IIIB strain). The test is described as follows: Cell-Based HIV Infection Assay Using a Reporter (MT4-GFP cells). As to conditions: Human immunodeficiency virus 1, inflection point (IP) of viral growth inhibition; MT4-GFP cells infected with HIV-1 H9IIIB; 50% normal human serum; mean of at least two independent experiments; read-out: Cell Based IP (50% NHS). A digest of the protocol: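 Inflection point from a 4-parameter curve of % viral growth inhibition, normalised to DMSO and triple-drug controls, using the 48 h/24 h ratio of GFP-positive cells (R0). MT4-GFP cells pre-infected 24 h with HIV-1 H9IIIB at low MOI; compounds tested in 50% normal human serum, 0.4% DMSO; mean of ≥2 experiments.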
Regarding `Cn1nc([C@H](c2ccc(Cl)cc2)[C@H](N)C(=O)Nc2cccc(F)c2CC[C@H]2CN[C@@H]3CCCS(=O)(=O)N2C3)cc1C(F)(F)F` [Example 260, (βR)-4-chloro-N-(2-{2-[(6R,9S)-2,2-dioxido-2-thia-1,7-diazabicyclo[4.3.1]dec-9-yl]ethyl}-3-fluorophenyl)-β-[1-methyl-5-(trifluoromethyl)-1H-pyrazol-3-yl]-L-phenylalaninamide], the EC50 turned out to be 4.4 nM.
Under `COC(=O)N[C@H](C(=O)Nc1cccc(F)c1CCC1CN[C@@H]2CCCS(=O)(=O)N1C2)[C@H](CC(C)C)c1ccc(F)cc1` (stereo partly drawn) [Example 90, methyl [(1S,2R)-1-[(2-{2-[(6R)-2,2-dioxido-2-thia-1,7-diazabicyclo[4.3.1]dec-9-yl]ethyl}-3-fluorophenyl)carbamoyl]-2-(4-fluorophenyl)-4-methylpcnlyl]carbamate] stands 23 nM; under `CCO[C@H]1CC[C@H]([C@H](c2ccc(Cl)c(F)c2)[C@H](N)C(=O)Nc2cncc(F)c2CC[C@H]2CN[C@@H]3CCCS(=O)(=O)N2C3)CC1` [Example 253, (βR)-4-chloro-N-(4-{2-[(6R,9S)-2,2-dioxido-2-thia-1,7-diazabicyclo[4.3.1]dec-9-yl]ethyl}-5-fluoropyridin-3-yl)-β-[(1r,4R)-4-ethoxycyclohexyl]-3-fluoro-L-phenylalaninamide], 5.8 nM; under `C[C@@H]1C[C@](c2ccc(Cl)cc2)([C@H](N)C(=O)Nc2cccc(F)c2CC[C@H]2CN[C@@H]3CCCS(=O)(=O)N2C3)C[C@H](C)O1` [Example 168, (2S)-2-amino-2-[(2R,4r,6S)-4-(4-chlorophenyl)-2,6-dimethyltetrahydro-2H-pyran-4-yl]-N-(2-{2-[(6R,9S)-2,2-dioxido-2-thia-1,7-diazabicyclo[4.3.1]dec-9-yl]ethyl}-3-fluorophenyl)ethanamide], 170 nM.
Regarding `N[C@H](C(=O)Nc1cccc(F)c1CC[C@H]1CN[C@@H]2CCCS(=O)(=O)N1C2)[C@@H](c1ccc(Cl)cc1)c1nc(C(F)(F)F)cs1` [Example 264, (βR)-4-chloro-N-(2-{2-[(6R,9S)-2,2-dioxido-2-thia-1,7-diazabicyclo[4.3.1]dec-9-yl]ethyl}-3-fluorophenyl)-β-[4-(trifluoromethyl)-1,3-thiazol-2-yl]-L-phenylalaninamide], the EC50 amounted to 6.9 nM.
In the case of `COCCN[C@H](C(=O)N[C@H]1CCC[C@@H]1CC[C@H]1CN[C@@H]2CCCS(=O)(=O)N1C2)[C@@H](c1ccc(Cl)cc1)C1CCOC(C)(C)C1` (stereo partly drawn) [Example 182, (βR)-4-chloro-β-(2,2-dimethyltetrahydro-2H-pyran-4-yl)-N-[(1S,2R)-2-{2-[(6R,9S)-2,2-dioxido-2-thia-1,7-diazabicyclo[4.3.1]dec-9-yl]ethyl}cyclopentyl]-Nα-(2-methoxyethyl)-L-phenylalaninamide] it was 70 nM.
In the case of `CO[C@H]1CC[C@H]([C@H](c2ccc(F)cc2)[C@H](N)C(=O)Nc2cncc(F)c2CC[C@H]2CN[C@@H]3CCCS(=O)(=O)N2C3)CC1` [Example 27, (2S,3R)-2-Amino-N-(4-(2-((6R,9S)-2,2-dioxido-2-thia-1,7-diazabicyclo[4.3.1]decan-9-yl)ethyl)-5-fluoropyridin-3-yl)-3-(4-fluorophenyl)-3-((1r,4R)-4-methoxycyclohexyl)propanamide] it was 7.5 nM; in that of `CC(C)[C@H](c1ccc(Cl)cc1)[C@H](N)C(=O)Nc1cncc(F)c1CC[C@H]1CN[C@@H]2CCCS(=O)(=O)N1C2` [Example 238, (2S,3R)-2-amino-3-(4-chlorophenyl)-N-(4-(2-((6R,9S)-2,2-dioxido-2-thia-1,7-diazabicyclo[4.3.1]decan-9-yl)ethyl)-5-fluoropyridin-3-yl)-4-methylpentanamide], 13 nM.
Under `N[C@H](C(=O)N[C@H]1CCCC[C@@H]1CC[C@H]1CN[C@@H]2CCCS(=O)(=O)N1C2)C(c1ccc(F)cc1)c1ccc(F)cc1` [Example 93, N-[(1S,2R)-2-{2-[(6R,9S)-2,2-dioxido-2-thia-1,7-diazabicyclo[4.3.1]dec-9-yl]ethyl)cyclohexyl]-4-fluoro-β-(4-fluorophenyl)-L-phenylalaninamide] stands 56 nM; under `O=C(C[C@@H](c1ccc(Cl)c(F)c1)N1CCOCC1)N[C@H]1CCC[C@@H]1CC[C@H]1CN[C@@H]2CCCS(=O)(=O)N1C2` [Example 75, (3S)-3-(4-chloro-3-fluorophenyl)-N-[(1S,2R)-2-{2-[(6R,9S)-2,2-dioxido-2-thia-1,7-diazabicyclo[4.3.1]dec-9-yl]ethyl}cyclopentyl]-3-morpholin-4-ylpropanamide], 110 nM.
With `N[C@H](C(=O)N[C@H]1CCCC[C@@H]1CC[C@H]1CN[C@@H]2CCCS(=O)(=O)N1C2)[C@@H](c1ccc(Cl)cc1)c1cc(F)cc(F)c1` [Example 160, (βS)-β-(4-chlorophenyl)-N-[(1S,2R)-2-{2-[(6R,9S)-2,2-dioxido-2-thia-1,7-diazabicyclo[4.3.1]dec-9-yl]ethyl}cyclohexyl]-3,5-difluoro-L-phenylalaninamide], the EC50 turned out to be 22 nM.
Under `COC(=O)N[C@H](C(=O)N[C@H]1CCC[C@@H]1CC[C@H]1CN[C@@H]2CCCS(=O)(=O)N1C2)[C@@H](c1ccccc1)c1ccc(OC)nc1` [Example 82, methyl {(1S)-2-{[(1S,2R)-2-{2-[(6R,9S)-2,2-dioxido-2-thia-1,7-diazabicyclo[4.3.1]dec-9-yl]ethyl}cyclopentyl]amino}-1-[(S)-(6-methoxypyridin-3-yl)(phenyl)methyl]-2-oxoethyl}carbamate] stands 160 nM; under `C[C@@H]1CC([C@H](c2ccc(F)cc2)[C@H](N)C(=O)Nc2cccc(F)c2CC[C@H]2CN[C@@H]3CCCS(=O)(=O)N2C3)C[C@@H](C)O1` (stereo partly drawn) [Example 113, (βR)-β-[(2R,6R)-2,6-dimethyltetrahydro-2H-pyran-4-yl]-N-(2-{2-[(6R,9S)-2,2-dioxido-2-thia-1,7-diazabicyclo[4.3.1]dec-9-yl]ethyl}-3-fluorophenyl)-4-fluoro-L-phenylalaninamide], 22 nM; under `N[C@H](C(=O)Nc1cccc(F)c1CCC1CNC2CCCS(=O)(=O)N1C2)[C@@H](c1ccc(Cl)cc1)c1ccc(C(F)(F)F)nc1` (stereo partly drawn) [Example 89, (βS)-4-chloro-N-{2-[2-(2,2-dioxido-2-thia-1,7-diazabicyclo[4.3.1]dec-9-yl)ethyl]-3-fluorophenyl}-β-[6-(trifluoromethyl)pyridin-3-yl]-L-phenylalaninamide], 5.1 nM.
`CC(F)(F)c1cncc([C@H](c2ccc(Cl)cc2)[C@H](N)C(=O)Nc2cccc(F)c2CCC2CNC3CCCS(=O)(=O)N2C3)c1` (stereo partly drawn) [Example 20, (βS)-4-Chloro-β-[5-(1,1-difluoroethyl)pyridin-3-yl]-N-{2-[2-(2,2-dioxido-2-thia-1,7-diazabicyclo[4.3.1]dec-9-yl)ethyl]-3-fluorophenyl}-L-phenylalaninamide]: the EC50 turned out to be 11 nM.
As for `COC(=O)N[C@H](C(=O)Nc1cccc(F)c1CCC1CNC2CCCS(=O)(=O)N1C2)[C@@H](c1ccc(Cl)cc1)C1CC(F)(F)C1` (stereo partly drawn) [Example 4, Methyl [(1S,2R)-2-(4-chlorophenyl)-2-(3,3-difluorocyclobutyl)-1-({2-[2-(2,2-dioxido-2-thia-1,7-diazabicyclo[4.3.1]dec-9-yl)ethyl]-3-fluorophenyl}carbamoyl)ethyl]carbamate], the EC50 amounted to 13 nM.
Turning to `COC(=O)N[C@H](C(=O)Nc1cccc(F)c1CCC1CNC2CCCS(=O)(=O)N1C2)[C@H](c1ccc(F)cc1)C1CC(F)(F)C1` (stereo partly drawn) [Example 65, methyl [(1S,2S)-2-(3,3-difluorocyclobutyl)-1-({2-[2-(2,2-dioxido-2-thia-1,7-diazabicyclo[4.3.1]dec-9-yl)ethyl]-3-fluorophenyl}carbamoyl)-2-(4-fluorophenyl)ethyl]carbamate], the EC50 is 47 nM.
As for `COC(=O)N[C@H](C(=O)Nc1cccc(F)c1CCC1CNC2CCCS(=O)(=O)N1C2)[C@H](CCC1CCOCC1)c1ccc(Cl)c(F)c1` (stereo partly drawn) [Example 9, Methyl [(1S,2R)-2-(4-chloro-3-fluorophenyl)-1-({2-[2-(2,2-dioxido-2-thia-1,7-diazabicyclo[4.3.1]dec-9-yl)ethyl]-3-fluorophenyl}carbamoyl)-4-(tetrahydro-2H-pyran-4-yl)butyl]carbamate], the EC50 was determined as 7.1 nM.
As to `N[C@H](C(=O)Nc1cccc(F)c1CC[C@H]1CN[C@@H]2CCCS(=O)(=O)N1C2)C1(c2ccc(Cl)cc2)CCNCC1` [Example 185, (2S)-2-amino-2-[4-(4-chlorophenyl)piperidin-4-yl]-N-(2-{2-[(6R,9S)-2,2-dioxido-2-thia-1,7-diazabicyclo[4.3.1]dec-9-yl]ethyl}-3-fluorophenyl)ethanamide], the EC50 came to 3300 nM.
As to `N[C@H](C(=O)Nc1cccc(F)c1CCC1CNC2CCCS(=O)(=O)N1C2)[C@H](c1cncc(F)c1)c1ccc(Cl)c(F)c1` (stereo partly drawn) [Example 44, (βS)-4-chloro-N-{2-[2-(2,2-dioxido-2-thia-1,7-diazabicyclo[4.3.1]dec-9-yl)ethyl]-3-fluorophenyl}-3-fluoro-β-(5-fluoropyridin-3-yl)-L-phenylalaninamide], the EC50 turned out to be 4.5 nM.
On to `N[C@H](C(=O)Nc1cccc(F)c1CC[C@H]1CN[C@@H]2CCCS(=O)(=O)N1CC2)[C@@H](c1ccc(F)cc1)c1cc(F)cc(F)c1` [Example 276, (2S,3S)-2-Amino-3-(3,5-difluorophenyl)-N-(2-(2-((6R,9S)-2,2-dioxido-2-thia-1,7-diazabicyclo[4.3.2]undecan-9-yl)ethyl)-3-fluorophenyl)-3-(4-fluorophenyl)propanamide], for which the EC50 was found to be 6.1 nM.
In the case of `N[C@H](C(=O)Nc1cccc(F)c1CCC1CNC2CCCS(=O)(=O)N1C2)[C@H](CCC1CCOCC1)c1ccc(Cl)c(F)c1` (stereo partly drawn) [Example 74, (βR)-4-chloro-N-{2-[2-(2,2-dioxido-2-thia-1,7-diazabicyclo[4.3.1]dec-9-yl)ethyl]-3-fluorophenyl}-3-fluoro-β-[2-(tetrahydro-2H-pyran-4-yl)ethyl]-L-phenylalaninamide] it was 151 nM.
